From patent publication US20200199579A1, “Rapid Display Method in Translational Synthesis of Peptide” (PeptiDream Inc., priority 2009, published 2020) come the findings set out here.

The target in assay [1] is T1, Human tumor necrosis factor-alpha (TNF-α) (Homo sapiens, UniProt P01375).
T1 construct: made in house; host or cells: E. coli (co-expressed with biotin ligase BirA)
Kind of assay: Yield of peptide-mRNA complexes presenting TNF-α-DW, recovered with biotinylated TNF-α on streptavidin beads and quantified by real-time PCR. Conditions: peptide aptamer TNF-α-DW. Here is the method: In the case where an mRNA is preliminarily prepared by transcription reaction and then translated into a peptide and the resulting peptide is fused to a linker, a peptide-mRNA complex was prepared by the following procedure. First, 4 mM sodium acetate, pH 5.0 and mRNA were mixed in 1:3, and the mixture was heated on a thermoblock at 95° C. for 1 minute and then allowed to stand at room temperature for 5 min. A 25 μM linker solution dissolved in 1 mM sodium acetate was added and the mixture was allowed to stand for 10 minutes to form an mRNA-linker complex. To this were added the other components of the translation system and the mixture was incubated in a constant-temperature water bath (NT-202D, Nissin Scientific Corporation) at 37° C. for 30 minutes, then at room temperature for 12 min, and 0.1 M EDTA (ethylenediaminetetraacetic acid, molecular biology grade, NACALAI TESQUE, INC.) adjusted to pH 7.5 was added at a final concentration of 20 mM, and the mixture was further incubated in the constant-temperature water bath at 37° C. for 30 minutes.
In the case where a cDNA is added to a reaction solution and transcription, translation and fusion to a linker are performed in this reaction solution, a peptide-mRNA complex was prepared by the following procedure. […]
(Real-time PCR tracks product formation cycle by cycle.)

Assay [2] has as its target T2, TNF-α (Homo sapiens, UniProt P01375).
T2 construct: made in house; host or cells: E. coli (co-expressed with biotin ligase BirA)
Kind of assay: Verification of mapping: recovery from a 100:1 EMP1SS / TNF-α-DW mixture by TNF-α pull-down, PCR and gel electrophoresis. It is filed as binding. As to conditions: an21-Phe linker; mRNA or cDNA input; FIG. 6. How it is done: This mixture was used to perform experiments similar to those described above, and the recovered DNA was amplified by PCR under the following conditions. That is, 20 μL of a reaction solution containing Taq polymerase and a test sample solution in PCR (taq-) buffer was prepared and reacted by temperature cycling of 30 cycles of {94° C. 40 sec, 61° C. 40 sec, 72° C. 40 sec} (with a slope of 0.5° C./sec from 61° C. to 72° C.) using a thermal cycler. 2.5 μL of the reaction product solution was separated by electrophoresis using a gel consisting of TAE (40 mM Tris-acetate, 1 mM EDTA) and 3% agarose (low electroendosmosis, NACALAI TESQUE, INC.), and electrophoretograms were obtained under a transilluminator after staining with ethidium bromide.
A band derived from the mRNA encoding TNF-α-DW is observed at the position of about 90 bp, while a band derived from the mRNA encoding the control EMP1SS is observed at the position of about 150 bp. When the an21-ACCA linker containing no peptidyl acceptor was used, only a band derived from the mRNA of EMP1SS was observed, reflecting the molar ratio of the two types of cDNA in the initial mixture.

T1 sequence (P01375 with tags, fused parts or gaps): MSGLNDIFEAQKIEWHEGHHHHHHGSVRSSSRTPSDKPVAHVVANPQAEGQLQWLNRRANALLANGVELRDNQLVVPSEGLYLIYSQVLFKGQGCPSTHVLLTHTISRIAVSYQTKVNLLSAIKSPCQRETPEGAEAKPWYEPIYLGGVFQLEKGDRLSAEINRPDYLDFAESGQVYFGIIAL
T2 sequence (P01375 with tags, fused parts or gaps): as above

In the case of “5′-CCCGCCTCCCGCCCCCCGTCC-[SPC18]5-A*-C*-C*-A*-3′ [an21-ACCA]”, the “yield of peptide-mRNA complexes” value in assay [1] (cDNA added to the reaction solution (one-pot transcription/translation), FIG. 5) was 0.007%; in assay [1] (mRNA added to the translation reaction solution, FIG. 4), 0.015%. In the case of “XAAGGTYSSHFGPLTWVSKPQGGAA, wherein X is Ac-D-Trp [EMP1SS, reference compound]”, in assay [2], the “binding of the presented peptide to the target protein” value is “does not bind to the target”. As for XQRLHCLYLKH (X: Ac-D-Trp) [TNF-α-DW], the “binding of the presented peptide to the target protein” value in assay [2] is “binds to the target protein”.
